# pEC50: −log10 of the molar value. Like-named read-outs stand apart in the source and are kept apart here.
# Test system: recombinant NL-Rluc virus
# Assay: Inhibition of HIV replication (NL-RLuc luciferase reporter virus, MT-2 cells)
# Format: cell-based
# Settings: Human immunodeficiency virus 1, MT2, 120 h; for pEC50: read-out: Activity; for EC50: read-out: EC50 μM
SMILES,pEC50,EC50 [µM]
"Cc1nc2cc(C(=O)Nc3ccc(C4CCCCC4)cc3)nn2c(-c2cc(F)c3c(c2C)CCCO3)c1[C@H](OC(C)(C)C)C(=O)O [Example 73, (2S)-2-(tert-butoxy)-2-(2-((4-cyclohexylphenyl)carbamoyl)-7-(8-fluoro-5-methylchroman-6-yl)-5-methylpyrazolo[1,5-a]pyrimidin-6-yl)acetic acid]",> 7.00,
"Cc1nc2cc(C(=O)NCc3cccnc3)nn2c(-c2cc(F)c3c(c2C)CCCO3)c1[C@H](OC(C)(C)C)C(=O)O [Example 61, (2S)-2-(tert-butoxy)-2-(7-(8-fluoro-5-methylchroman-6-yl)-5-methyl-2-((pyridin-3-ylmethyl)carbamoyl)pyrazolo[1,5-a]pyrimidin-6-yl)acetic acid]",< 6.00,
"Cc1nc2cc(C(=O)NCc3ccc(F)cc3O)nn2c(-c2cc(F)c3c(c2C)CCCO3)c1[C@H](OC(C)(C)C)C(=O)O [Example 63, (2S)-2-(tert-butoxy)-2-(2-((4-fluoro-2-hydroxybenzyl)carbamoyl)-7-(8-fluoro-5-methylchroman-6-yl)-5-methylpyrazolo[1,4-a]pyrimidin-6yl)acetic acid]",> 7.00,
"CCCc1cc(CNC(=O)c2cc3nc(C)c([C@H](OC(C)(C)C)C(=O)O)c(-c4cc(F)c5c(c4C)CCCO5)n3n2)ccc1F [Example 25, (2S)-2-(tert-butoxy)-2-(2-((4-fluoro-3-propylbenzyl)carbamoyl)-7-(8-fluoro-5-methylchroman-6-yl)-5-methylpyrazolo[1,5-a]pyrimidin-6-yl)acetic acid]",> 7.00,
"Cc1nc2cc(C(=O)N3CCC(CCO)CC3)nn2c(-c2cc(F)c3c(c2C)CCCO3)c1[C@H](OC(C)(C)C)C(=O)O [Example 106, (2S)-2-(tert-butoxy)-2-(7-(8-fluoro-5-methylchroman-6-yl)-2-(4-(2-hydroxyethyl)piperidine-1-carbonyl)-5-methylpyrazolo[1,5-a]pyrimidin-6-yl)acetic acid]",< 6.00,
"Cc1nc2cc(C(=O)NCc3ccc(F)cc3-c3ncnn3C)nn2c(-c2cc(F)c3c(c2C)CCCO3)c1[C@H](OC(C)(C)C)C(=O)O [Example 18, (2S)-2-(tert-butoxy)-2-(2-((4-fluoro-2-(1-methyl-1H-1,2,4-triazol-5-yl)benzyl)carbamoyl)-7-(8-fluoro-5-methylchroman-6-yl)-5-methylpyrazolo[1,5-a]pyrimidin-6-yl)acetic acid]",6.00 to 7.00,0.547
"Cc1nc2cc(C(=O)N(C)Cc3ccccc3F)nn2c(-c2cc(F)c3c(c2C)CCCO3)c1[C@H](OC(C)(C)C)C(=O)O [Example 22, (2S)-2-(tert-butoxy)-2-(7-(8-fluoro-5-methylchroman-6-yl)-2-((2-fluorobenzyl)(methyl)carbamoyl)-5-methylpyrazolo[1,5-a]pyrimidin-6-yl)acetic acid]",> 7.00,
"Cc1nc2cc(C(=O)NCc3cc(Cl)cc(Cl)c3)nn2c(-c2cc(F)c3c(c2C)CCCO3)c1[C@H](OC(C)(C)C)C(=O)O [Example 118, (2S)-2-(tert-butoxy)-2-(2-((3,5-dichlorobenzyl)carbamoyl)-7-(8-fluoro-5-methylchroman-6-yl)-5-methylpyrazolo[1,5-a]pyrimidin-6-yl)acetic acid]",> 7.00,
"Cc1nc2cc(C(=O)N3CCN(c4ccc(Cl)cc4)CC3)nn2c(-c2cc(F)c3c(c2C)CCCO3)c1[C@H](OC(C)(C)C)C(=O)O [Example 116, (2S)-2-(tert-butoxy)-2-(2-(4-(4-chlorophenyl)piperazine-1-carbonyl)-7-(8-fluoro-5-methylchroman-6-yl)-5-methylpyrazolo[1,5-a]pyrimidin-6-yl)acetic acid]",> 7.00,
"Cc1nc2cc(C(=O)N3CCN(Cc4ccc5c(c4)OCO5)CC3)nn2c(-c2cc(F)c3c(c2C)CCCO3)c1[C@H](OC(C)(C)C)C(=O)O [Example 92, (2S)-2-(2-(4-(benzo[d][1,3]dioxol-5-ylmethyl)piperazine-1-carbonyl)-7-(8-fluoro-5-methylchroman-6-yl)-5-methylpyrazolo[1,5-a]pyrimidin-6-yl)-2-(tert-butoxy)acetic acid]",6.00 to 7.00,
"Cc1nc2cc(C(=O)NCc3ccc(Oc4ccccc4)cc3)nn2c(-c2cc(F)c3c(c2C)CCCO3)c1[C@H](OC(C)(C)C)C(=O)O [Example 68, (2S)-2-(tert-butoxy)-2-(7-(8-fluoro-5-methylchroman-6-yl)-5-methyl-2-((4-phenoxybenzyl)carbamoyl)pyrazolo[1,5-a]pyrimidin-6-yl)acetic acid]",> 7.00,
"Cc1nc2cc(C(=O)NCCc3ccc(F)cc3)nn2c(-c2cc(F)c3c(c2C)CCCO3)c1[C@H](OC(C)(C)C)C(=O)O [Example 57, (2S)-2-(tert-butoxy)-2-(7-(8-fluoro-5-methylchroman-6-yl)-2-((4-fluorophenethyl)carbamoyl)-5-methylpyrazolo[1,5-a]pyrimidin-6-yl)acetic acid]",> 7.00,
"COc1ccc(CNC(=O)c2cc3nc(C)c([C@H](OC(C)(C)C)C(=O)O)c(-c4cc(F)c5c(c4C)CCCO5)n3n2)cc1 [Example 110, (2S)-2-(tert-butoxy)-2-(7-(8-fluoro-5-methylchroman-6-yl)-2-((4-methoxybenzyl)carbamoyl)-5-methylpyrazolo[1,5-a]pyrimidin-6-yl)acetic acid]",> 7.00,
"Cc1nc2cc(C(=O)NCCC(C)(C)C)nn2c(C2=CCC(C)(C)CC2)c1[C@H](OC(C)(C)C)C(=O)O [Example 148, (S)-2-(tert-Butoxy)-2-(2-((3,3-dimethylbutyl)carbamoyl)-7-(4,4-dimethylcyclohex-1-en-1-yl)-5-methylpyrazolo[1,5-a]pyrimidin-6-yl)acetic acid]",> 7.00,
COc1cccc(CNC(=O)c2cc3nc(C)c([C@H](OC(C)(C)C)C(=O)O)c(-c4cc(F)c5c(c4C)CCCO5)n3n2)c1 [Example 71],> 7.00,
"Cc1nc2cc(C(=O)NCc3ccc(Cl)c(C(F)(F)F)c3)nn2c(-c2cc(F)c3c(c2C)CCCO3)c1[C@H](OC(C)(C)C)C(=O)O [Example 120, (2S)-2-(tert-butoxy)-2-(2-((4-chloro-3-(trifluoromethyl)benzyl)carbamoyl)-7-(8-fluoro-5-methylchroman-6-yl)-5-methylpyrazolo[1,5-a]pyrimidin-6-yl)acetic acid]",> 7.00,
"Cc1nc2cc(C(=O)NCCCC3CCOC3)nn2c(-c2cc(F)c3c(c2C)CCCO3)c1[C@H](OC(C)(C)C)C(=O)O (stereo partly drawn) [Example 132, (2S)-2-(tert-butoxy)-2-(7-(8-fluoro-5-methylchroman-6-yl)-5-methyl-2-((3-(tetrahydrofuran-3-yl)propyl)carbamoyl)pyrazolo[1,5-a]pyrimidin-6-yl)acetic acid]",6.00 to 7.00,
"Cc1nc2cc(C(=O)NCCN3CCOCC3)nn2c(-c2cc(F)c3c(c2C)CCCO3)c1[C@H](OC(C)(C)C)C(=O)O [Example 88, (2S)-2-(tert-butoxy)-2-(7-(8-fluoro-5-methylchroman-6-yl)-5-methyl-2-((2-morpholinoethyl)carbamoyl)pyrazolo[1,5-a]pyrimidin-6-yl)acetic acid]",< 6.00,
"COc1cc(F)ccc1CNC(=O)c1cc2nc(C)c([C@H](OC(C)(C)C)C(=O)O)c(-c3cc(F)c4c(c3C)CCCO4)n2n1 [Example 29, (2S)-2-(tert-butoxy)-2-(2-((4-fluoro-2-methoxybenzyl)carbamoyl)-7-(8-fluoro-5-methylchroman-6-yl)-5-methylpyrazolo[1,5-a]pyrimidin-6-yl)acetic acid]",> 7.00,
"COc1ccc(CCNC(=O)c2cc3nc(C)c([C@H](OC(C)(C)C)C(=O)O)c(-c4cc(F)c5c(c4C)CCCO5)n3n2)cc1 [Example 65, (2S)-2-(tert-butoxy)-2-(7-(8-fluoro-5-methylchroman-6-yl)-2-((4-methoxyphenethyl)carbamoyl)-5-methylpyrazolo[1,5-a]pyrimidin-6-yl)acetic acid]",> 7.00,
"Cc1nc2cc(C(=O)N3CCc4ccccc4C3)nn2c(-c2cc(F)c3c(c2C)CCCO3)c1[C@H](OC(C)(C)C)C(=O)O [Example 79, (2S)-2-(tert-butoxy)-2-(7-(8-fluoro-5-methylchroman-6-yl)-5-methyl-2-(1,2,3,4-tetrahydroisoquinoline-2-carbonyl)pyrazolo[1,5-a]pyrimidin-6-yl)acetic acid]",> 7.00,
"COc1ccccc1CNC(=O)c1cc2nc(C)c([C@H](OC(C)(C)C)C(=O)O)c(-c3cc(F)c4c(c3C)CCCO4)n2n1 [Example 42, (2S)-2-(tert-butoxy)-2-(7-(8-fluoro-5-methylchroman-6-yl)-2-((2-methoxybenzyl)carbamoyl)-5-methylpyrazolo[1,5-a]pyrimidin-6-yl)acetic acid]",> 7.00,
Cc1nc2cc(C(=O)NCCCn3ccnc3)nn2c(-c2cc(F)c3c(c2C)CCCO3)c1[C@H](OC(C)(C)C)C(=O)O [Example 51],< 6.00,
Cc1nccc(-c2cccc(NC(=O)c3cc4nc(C)c([C@H](OC(C)(C)C)C(=O)O)c(-c5cc(F)c6c(c5C)CCCO6)n4n3)c2)n1 [Example 85],> 7.00,0.016
"Cc1cc(CNC(=O)c2cc3nc(C)c([C@H](OC(C)(C)C)C(=O)O)c(/C=C/CC(C)C)n3n2)ccc1F [Example 149, (S,E)-2-(tert-Butoxy)-2-(2-((4-fluoro-3-methylbenzyl)carbamoyl)-5-methyl-7-(4-methylpent-1-en-1-yl)pyrazolo[1,5-a]pyrimidin-6-yl)acetic acid]",< 6.00,
"Cc1ccc(NC(=O)c2cc3nc(C)c([C@H](OC(C)(C)C)C(=O)O)c(-c4cc(F)c5c(c4C)CCCO5)n3n2)cc1 [Example 15, (2S)-2-(tert-butoxy)-2-(7-(8-fluoro-5-methylchroman-6-yl)-5-methyl-2-(p-tolylcarbamoyl)pyrazolo[1,5-a]pyrimidin-6-yl)acetic acid]",> 7.00,
"Cc1nc2cc(C(=O)NCCC3CCCCC3)nn2c(-c2cc(F)c3c(c2C)CCCO3)c1[C@H](OC(C)(C)C)C(=O)O [Example 128, (2S)-2-(tert-butoxy)-2-(2-((2-cyclohexylethyl)carbamoyl)-7-(8-fluoro-5-methylchroman-6-yl)-5-methylpyrazolo[1,5-a]pyrimidin-6-yl)acetic acid]",> 7.00,
"CCCCNC(=O)c1cc2nc(C)c([C@H](OC(C)(C)C)C(=O)O)c(-c3cc(F)c4c(c3C)CCCO4)n2n1 [Example 114, (2S)-2-(tert-butoxy)-2-(2-(butylcarbamoyl)-7-(8-fluoro-5-methylchroman-6-yl)-5-methylpyrazolo[1,5-a]pyrimidin-6-yl)acetic acid]",> 7.00,
